Assay results: patent publication US20130231377A1, “PACTAMYCIN ANALOGS AND METHODS OF USE” (State of Oregon acting by and through the state Board of …, priority 2010, published 2013)
pEC50, pIC50: −log10 of the molar value. Like-named read-outs stand apart in the source and are kept apart here. Values belong to the compound of their own block, whether it stands above or below them.

Tests used:
[1] = system: chloroquine-sensitive clone D6 of P. falciparum; test: Antimalarial activity assay, SYBR Green I fluorescence-based method; assay type: cell-based, Plasmodium falciparum; settings: for pIC50: read-out: Antimalarial IC50 (D6); for IC90: read-out: Antimalarial IC90 (D6)
Protocol: (§1) An antimalarial activity assay was carried out at the Oregon Translational Research and Drug Development Institute (OTRADI). Two strains of P. falciparum were used. The chloroquine-sensitive clone D6, and chloroquine-resistant and MDR clone Dd2 was obtained from the Malaria Research and Reference Reagent Resource Center (MR4) (Manassas, Va.). The parasites were cultured according to the method of Trager and Jensen (Trager and Jensen, Science, 1976, 193:673-675), with minor modifications. The cultures were maintained in human erythrocytes (Lampire Biological Laboratories, Pipersville, Pa.), suspended at 2% hematocrit in RPMI 1640 (Sigma) containing 0.5% Albumax (Invitrogen), […] hypoxanthine (Lancaster), and 50 μg/L gentamicin (Invitrogen), and incubated at 37° C. under a gas mixture of 5% O2, 5% CO2, and 90% N2. In vitro antimalarial activity was determined by a SYBR Green I fluorescence-based method described previously by Smilkstein et al. (Smilkstein et al., Antimicrob. Agents Chemother., 2004, 48:1803-1806). Frozen stock solutions of each test drug (1 mM in DMSO) were thawed, warmed to 37° C., and mixed thoroughly prior to use. Drug solutions were serially diluted with culture medium, and distributed to asynchronous parasite cultures on 96-well plates in quadruplicate in a total volume of 100 μL to achieve 0.2% parasitemia with a 2% hematocrit in a total volume of 100 μL. Automated pipeting and dilution was carried using programmable Precision XS (Bio-Tek, Winooski, Vt.) and Sciclone ALH3000 (Caliper, Hopkinton, Mass.) robotic stations. The plates then were incubated for 72 hours at temperature and gas conditions described above. After incubation, 100 μL of lysis buffer with SYBR Green I was added to each well. The plates were incubated at room temperature for 1 h and then placed in a 96-well fluorescence plate reader (Synergy4, BioTek, Winooski, Vt.) with excitation and emission wavelength at 485 nm and 528 nm, respectively, for measurement of fluorescence. The 50% inhibitory concentration (IC50) was determined by non-linear regression analysis of logistic dose-response curves (GraphPad Prism software).

[2] = system: chloroquine-resistant and MDR clone Dd2 of P. falciparum; test: as above; assay type: cell-based, Plasmodium falciparum; settings: for pIC50: read-out: Antimalarial IC50 (Dd2); for IC90: read-out: Antimalarial IC90 (Dd2)
Protocol: as §1

[3] = Cytotoxicity assay (WST-8) against HCT116 cells; assay type: cell-based; settings: human, HCT116 colorectal carcinoma cells, estimated
Protocol: HCT116 (colorectal carcinoma) cells were seeded onto a 96-well plate at 10,000 cells per well. Cells were treated with either 5, 50, 500 or 5000 nM TM-025, TM-026, N-acetyl-glucosaminyl-3-aminoacetophenone or 5, 25, 50, 100 nM pactamycin in triplicate for 48 hours. For the narrow range concentration assays, cells were treated with either 0.5, 1, 2 or 4 μM TM-025; 1, 2, 3 or 5 μM TM-026; 0.5, 2, 5 or 7 μM N-acetylglucosaminyl-3-aminoacetophenone or 12.5, 25, 50, 100 nM pactamycin in triplicate for 24 or 48 hours. WST-8 [2-(2-methoxy-4-nitrophenyl)-3-[…], monosodium salt] (Dojindo, Rockville, Md.) was added to each well to give an orange-colored formazan product, which is soluble in tissue culture medium. Absorbance was measured at 450 nm. Percent of viable cells was calculated relative to the “No Treatment” and “Solvent Only” wells.

[4] = system: Gram-positive and Gram-negative bacteria; test: Antibacterial agar diffusion and micro-dilution assays, all tested strains (Example 1); assay type: cell-based, S. aureus, B. subtilis, P. aeruginosa, E. coli; settings: for antibacterial activity in agar diffusion and micro-dilution assays (in words): at the concentrations used; for pIC50: consistently higher than pactamycin, mostly >1 mM, read-out: IC50 against all tested bacterial strains
Protocol: The antibacterial activity of pactamycin and its analogs was determined by agar diffusion and micro-dilution assays. E. coli, P. aeruginosa, B. subtilis or M. smegmatis, and S. aureus were streaked on nutrient agar (Difco or Beckton-Dickinson) and grown overnight at 37° C. Colonies were transferred to nutrient broth and incubated at 37° C. for 24 hours. Turbidity of the inoculum was measured to a proper density at 600 nm (BioRad, SmartSpec 3000). For plate preparation, inoculum (500 μL) was mixed thoroughly with warm nutrient agar (50 mL) and poured to 25 mL square plates. The agar plates were allowed to solidify and dry for 30 min before assay. Sterile blank paper disks (Becton-Dickinson) were impregnated with pactamycin and its analogs (20 μL) at various concentrations and dried at room temperature. The disks were placed onto inoculated agar plates and incubated at 37° C. for 24 hours. In order to produce a contrast background of the inhibition zone, 0.25% MTT developing dye (1 mL) was added over the plates.
Micro-dilution assays were performed in 96-well plates. The compounds were serially diluted and added to the bacterial suspension at final concentrations of 1 mM-10 nM, or 0.5 mM-10 nM. After incubation at 37° C. for 24 hours, 0.25% MTT developing dye (50 μL) was added. Each assay was done in triplicate.

E. coli = test: Antibacterial agar diffusion assay (Example 2); assay type: cell-based, Escherichia coli
Protocol: (§2) Antibacterial activity of pactamycin and its analogues was determined by an agar diffusion assay. E. coli, Pseudomonas aeruginosa, Mycobacterium smegmatis, and Staphylococcus aureus were streaked on nutrient agar (Difco) and grown overnight at 37° C. Colonies were transferred to nutrient broth and incubated at 37° C. for 24 hours. Turbidity of the inoculum was measured to a proper density at 600 nm (BioRad, SmartSpec 3000). For plate preparation, inoculum (500 μL) was mixed thoroughly with warm nutrient agar (50 mL) and poured to 25 mL square plates. The agar plates were allowed to solidify and dry for 30 minutes before assay. Sterile blank paper disks (Becton-Dickinson) were impregnated with pactamycin and its analogues (20 μL) at various concentrations and dried at room temperature. The disks were placed onto inoculated agar plates and incubated at 37° C. for 24 hours. In order to produce a contrast background of the inhibition zone, 0.25% MTT developing dye (1 mL) was added over the plates.

Pseudomonas aeruginosa = test: Antibacterial agar diffusion assay (Example 2); assay type: cell-based
Protocol: as §2

Staphylococcus aureus = test: Antibacterial agar diffusion assay (Example 2); assay type: cell-based
Protocol: as §2

Mycobacterium smegmatis = test: Antibacterial agar diffusion assay (Example 2); assay type: cell-based
Protocol: as §2

[5] = system: HT-29 human colon carcinoma cells; test: SRB growth inhibition assay in HT-29 cells; assay type: cell-based
Protocol: Growth inhibition of HT-29 cells induced by the test compounds was also evaluated by the SRB assay, which is based on measuring total biomass by staining the cellular proteins with sulforhodamine B (Skehan et al., J. Natl. Cancer Inst., 1990, 82:1107). After treating the HT-29 cells with the compounds for 24 hours, the adherent cells grown in 96-well plates were fixed with 10% trichloroacetic acid and incubated for 1 hour at 4° C. The plates were washed five times with tap water, dried, and stained with SRB solution (0.4% wt/vol in 1% acetic acid) for 30 minutes at room temperature. The plates were again washed and dried before adding 10 mM Tris base to solubilize the bound stain. Optical densities (OD) were read at 564 nm in SpectraMax 250 and cell growth of treated cells was expressed as the percentage of control cells, ODtest/ODcontrol×100%.

[6] = system: human colon cancer HT-29 cells; test: MTT cell viability assay in HT-29 cells; assay type: cell-based; settings: HT-29 cells, 24-hour
Protocol: The MTT assay was carried out as described by Mosmann (J. Immunol. Methods, 1983, 65:55). Briefly, human colon cancer HT-29 cells (ATCC) were seeded in 96-well plates at a density of 1.0×10^4 cells per well. The growth medium consisted of phenol red-free RPMI 1640 (Invitrogen, Carlsbad, Calif.) containing 10% fetal bovine serum (Invitrogen, Carlsbad, Calif.), glutamine (2 mM), penicillin (100 units/mL) and streptomycin (100 μg/mL). After a 24-hour incubation at 37° C. in a humidified atmosphere of 5% CO2, the medium was removed and replaced with fresh RPMI 1640 medium (with or without 10% FBS and no penicillin or streptomycin). Increasing concentrations of pactamycin, pactamycate, de-6MSA pactamycin, or de-6MSA-pactamycate dissolved in DMSO were added to cells at a volume of 0.2 mL/well. DMSO was added to control media not to exceed a final concentration of 1%. Following a 24-hour incubation, the medium was aspirated from each well and replaced with fresh RPMI medium with 10% FBS and MTT (0.5 mg/mL). […] The plate was shaken for 10 minutes before reading the absorbance at 570 nm using a microplate reader (SpectraMax 250, Molecular Devices, Sunnyvale, Calif., USA). The viability of treated cells was expressed as the percentage of control cells. […]

[7] = Plasmodium falciparum, D6, 72 h, P. falciparum D6, 72 hours
[8] = Plasmodium falciparum, DD2, 72 h, P. falciparum Dd2, 72 hours
[9] = Plasmodium falciparum, D6, 72 h
[10] = Plasmodium falciparum, DD2, 72 h

Compound: CC(=O)N[C@H]1C(Nc2cccc(C(C)=O)c2)O[C@H](CO)[C@@H](O)[C@@H]1O (stereo partly shown) [N-acetylglucosaminyl-3-aminoacetophenone, reference compound]
antimalarial activity (in words) ([1]; P. falciparum D6): lack of activity | antimalarial activity (in words) ([2]; P. falciparum Dd2): lack of activity

pIC50 ([1]; P. falciparum D6, 72 hours): ~7.60 | IC90 ([1]; P. falciparum D6, 72 hours): ~0.062 µM | pIC50 [1, 7]: 7.52 to 7.60 | IC90 [1, 7]: 0.062 to 0.077 µM | pIC50 ([2]; P. falciparum Dd2, 72 hours): ~7.60 | IC90 ([2]; P. falciparum Dd2, 72 hours): ~0.076 µM | pIC50 [2, 8]: 7.52 to 7.60 | IC90 [2, 8]: 0.062 to 0.077 µM | pIC50 [4]: < 3.00
Compound: CC(=O)c1cccc(N[C@H]2[C@H](N)[C@](C)(NC(=O)N(C)C)[C@@](C)(O)[C@@]2(O)CO)c1 [TM-025, de-6MSA-7-demethyl-7-deoxypactamycin]
pIC50 [3]: ~5.89 | antibacterial activity in agar diffusion and micro-dilution assays (in words) [4]: neither TM-025 nor TM-026 showed any significant activity

pIC50 ([1]; P. falciparum D6, 72 hours): ~7.52 | IC90 ([1]; P. falciparum D6, 72 hours): ~0.063 µM | pIC50 [1, 7]: 7.52 to 7.60 | IC90 [1, 7]: 0.062 to 0.077 µM | pIC50 ([2]; P. falciparum Dd2, 72 hours): ~7.59 | IC90 ([2]; P. falciparum Dd2, 72 hours): ~0.077 µM | pIC50 [2, 8]: 7.52 to 7.60 | IC90 [2, 8]: 0.062 to 0.077 µM | pIC50 [4]: < 3.00
Compound: CC(=O)c1cccc(N[C@H]2[C@H](N)[C@](C)(NC(=O)N(C)C)[C@@](C)(O)[C@@]2(O)COC(=O)c2c(C)cccc2O)c1 [TM-026, 7-demethyl-7-deoxypactamycin]
pIC50 [3]: ~5.52 | antibacterial activity in agar diffusion and micro-dilution assays (in words) [4]: neither TM-025 nor TM-026 showed any significant activity

pEC50 ([2]; Plasmodium falciparum, Example 2, FIG. 14, multi-drug resistant Dd2, read-out: EC50 against the Dd2 strain): 8.15
Compound: C[C@@H]1CC[C@H]2[C@@H](C)C(=O)O[C@@H]3O[C@@]4(C)CC[C@@H]1[C@]32OO4 [artemisinin, reference compound]

pEC50 ([1]; Plasmodium falciparum, D6, read-out: EC50 against the D6 strain): 8.00
Compound: CCN(CC)CCCC(C)Nc1ccnc2cc(Cl)ccc12 (stereo not shown) [chloroquine, reference compound]

Compound: CC(=O)c1cccc(N[C@H]2[C@H](N)[C@]3(NC(=O)O[C@H]3C)[C@@](C)(O)[C@@]2(O)CO)c1 [de-6MSA-pactamycate]
antibacterial activity, growth of E. coli (E. coli): no antibacterial activity | antibacterial activity, growth of Pseudomonas aeruginosa (Pseudomonas aeruginosa): no antibacterial activity | antibacterial activity, growth of Staphylococcus aureus (Staphylococcus aureus): no antibacterial activity | antibacterial activity, growth of Mycobacterium smegmatis (Mycobacterium smegmatis): no antibacterial activity

Compound: CC(=O)c1cccc(N[C@H]2[C@H](N)[C@]3(NC(=O)O[C@H]3C)[C@@](C)(O)[C@@]2(O)COC(=O)c2c(C)cccc2O)c1 [pactamycate, reference compound]
cytotoxicity profile (SRB-based assay) [5]: reduced cytotoxicity profile | pIC50 [1, 9]: ~6.52 | IC90 [1, 9]: ~0.8 µM | pIC50 [2, 10]: ~6.52 | IC90 [2, 10]: ~0.8 µM | antibacterial activity, growth of E. coli (E. coli): no antibacterial activity | cytotoxicity profile (MTT-based assay) [6]: reduced cytotoxicity profile | antibacterial activity, growth of Pseudomonas aeruginosa (Pseudomonas aeruginosa): no antibacterial activity | antibacterial activity, growth of Staphylococcus aureus (Staphylococcus aureus): no antibacterial activity | antibacterial activity, growth of Mycobacterium smegmatis (Mycobacterium smegmatis): no antibacterial activity
